Data on 22 substances can be found in patent US20240173432A1, “Compositions and Methods for Treatment of Myotonic Dystrophy Type 1 with CRISPR/SluCas9” (Vertex Pharmaceuticals Incorporated, priority 2021, published 2024).

The test system of series [1] is CUG foci in primary DM1 patient myoblasts. In words: Single-cut screening: FISH staining of CUG RNA foci. Format: cell-based, human. The settings on record: single sgRNA, primary DM1 patient myoblasts; for % of CUG foci free nuclei (DNA-PKi): DNA-PKi treated. An outline of the steps:
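CD56-purified primary DM1 patient myoblasts nucleofected with SluCas9:sgRNA RNP (30:90 pmol, single-cut), then DMSO or 3 μM DNA-PK inhibitor for 48 h. At 72 h post-nucleofection, cells fixed and stained for CUG foci with Cy3-PNA(CAG)5 probe (1 ng/μL, 80 °C), co-stained for MBNL1 and Hoechst, imaged by high-content confocal microscopy.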

The subject of series [2] is CAG foci in primary DM1 patient myoblasts. The series is described as follows: Single-cut screening: CAG foci staining. The settings on record: single sgRNA; for % of CAG foci positive nuclei (DNA-PKi): DNA-PKi treated. It is filed as cell-based, human. An outline of the steps: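 Primary DM1 patient myoblasts were PFA-fixed and hybridized with […] (1 ng/μL, 15 min at 80° C) in 30% formamide/2×SSC, followed by anti-MBNL1 immunostaining and Hoechst counterstain. CAG RNA foci were quantified by high-content confocal imaging after single-cut SuCas9 sgRNA editing.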

Series [3] relates to 3′ UTR of the human DMPK gene. The series is described as follows: Single-cut screening: indel editing efficiency by Sanger sequencing and ICE analysis in primary DM1 patient myoblasts. The settings on record: vehicle-treated samples; for Indel efficiency: single SluCas9 sgRNA RNP in primary DM1 patient myoblasts, Sanger sequencing and ICE analysis. Format: cell-based. A digest of the protocol: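 Indels were estimated by ICE from Sanger chromatograms of PCR amplicons covering the DMPK 3′ UTR wild-type allele, using only vehicle-treated samples; sgRNAs with R2<0.9 are flagged. Samples came from primary DM1 patient myoblasts (2 × 10^5) harvested 72 h after nucleofection with 30 pmol SluCas9 and 90 pmol single sgRNA RNP.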

“GGGGTCTCAGTGCATCCAAAAC (guide RNA; chemistry not fully specified) [SluD78]”: in series [1], the “% of CUG foci free nuclei (DNA-PKi)” value is on record as 27% and the “% of CUG foci free nuclei (Vehicle)” value was 12.61%. Further, in series [2], the “% of CAG foci positive nuclei (DNA-PKi)” value is 1.36% and the “% of CAG foci positive nuclei (Vehicle)” value turned out to be 2.31%. The substance also gave an Indel efficiency in series [3] of 4%.
Taken in the same sequence, the figures for “ccccggccGCTAGGGGGCGGGC (guide RNA; as printed in the source, key not given here) [SluU39]” were 36.78%, 10.53%, 2.5%, 0.71% and 11%.
Taken in the same sequence, the figures for “GCGCGATCTCTGCCTGCTTACT (guide RNA; chemistry not fully specified) [SluD37]” were 31.69%, 6.89%, 2.15%, 1.76% and 25%.
Regarding “GCGCGGCTTCTGTGCCGTGCCC (guide RNA; chemistry not fully specified) [SluU15]”, in series [1], the “% of CUG foci free nuclei (DNA-PKi)” value is listed as 31.71% and the “% of CUG foci free nuclei (Vehicle)” value is on record as 7.97%. Besides, in series [2], the “% of CAG foci positive nuclei (DNA-PKi)” value is 1.28% and the “% of CAG foci positive nuclei (Vehicle)” value amounted to 0.75%. The substance also yielded an Indel efficiency in series [3] of 4%.
Regarding “CGGCTCCGCCCGCTTCGGCGGT (guide RNA; chemistry not fully specified) [SluD60]”, in series [1], the “% of CUG foci free nuclei (DNA-PKi)” value was 16.87% and the “% of CUG foci free nuclei (Vehicle)” value is 6.71%. In series [2], the “% of CAG foci positive nuclei (DNA-PKi)” value was found to be 1.16% and the “% of CAG foci positive nuclei (Vehicle)” value is recorded as 1.02%. In series [3], the Indel efficiency is listed as 0%.
On to “TGGAGGATGGAACACGGACGGC (listed as DNA, chemistry not fully specified) [SluD18]”, for which, in series [1], the “% of CUG foci free nuclei (DNA-PKi)” value came to 31.47% and the “% of CUG foci free nuclei (Vehicle)” value was 15.38%. Further, in series [2], the “% of CAG foci positive nuclei (DNA-PKi)” value is 1.55% and the “% of CAG foci positive nuclei (Vehicle)” value stood at 2.71%. The Indel efficiency in series [3] is 75%. For the same substance, the “indel efficiency (Sanger sequencing and ICE analysis)” value in series [3] (single-cut, SluCas9 RNP, 72 hrs post nucleofection, wild-type allele) was “high editing IN4DEL efficiency”.
Turning to “gagggaggggccgggtccgcgg (GAGGGAGGGGCCGGGTCCGCGG; guide RNA; chemistry not fully specified) [SluU54]”, in series [1], the “% of CUG foci free nuclei (DNA-PKi)” value is given as 53.64% and the “% of CUG foci free nuclei (Vehicle)” value amounted to 13.12%. Besides, in series [2], the “% of CAG foci positive nuclei (DNA-PKi)” value is on record as 1.28% and the “% of CAG foci positive nuclei (Vehicle)” value came to 1.14%. The substance also came in with an Indel efficiency in series [3] of 10%.
With “GATCACAGACCATTTCTTTCTT (guide RNA; chemistry not fully specified) [SluD01]”, in series [1], the “% of CUG foci free nuclei (DNA-PKi)” value is listed as 17.29% and the “% of CUG foci free nuclei (Vehicle)” value was 18.45%. In series [2], the “% of CAG foci positive nuclei (DNA-PKi)” value was found to be 1.34% and the “% of CAG foci positive nuclei (Vehicle)” value is listed as 0.79%. The same substance gave an Indel efficiency in series [3] of 0%.
As for “GAGGGCCTTTTATTCGCGAGGG (guide RNA; chemistry not fully specified) [SluD97]”, in series [1], the “% of CUG foci free nuclei (DNA-PKi)” value is given as 39.95% and the “% of CUG foci free nuclei (Vehicle)” value is given as 16.07%. For the same substance, in series [2], the “% of CAG foci positive nuclei (DNA-PKi)” value amounted to 2.01% and the “% of CAG foci positive nuclei (Vehicle)” value was found to be 1.19%. Besides, the Indel efficiency in series [3] came out at 11%.
Taken in the same sequence, the figures for “GGGCGCGGGATCCCCGAAAAAG (guide RNA; chemistry not fully specified) [SluD43]” were 20.27%, 6.41%, 0.82%, 1.31% and 1%.
As for “CTCCGAGAGCAGCGCAAGTGAG (guide RNA; chemistry not fully specified) [SluD52]”, in series [1], the “% of CUG foci free nuclei (DNA-PKi)” value amounted to 26.8% and the “% of CUG foci free nuclei (Vehicle)” value came to 7.59%. Further, in series [2], the “% of CAG foci positive nuclei (DNA-PKi)” value is 1.57% and the “% of CAG foci positive nuclei (Vehicle)” value turned out to be 1.26%. Also, the Indel efficiency in series [3] is reported as 6%.
Taken in the same sequence, the figures for “CCCGGGCACTCAGTCTTCCAAC (guide RNA; chemistry not fully specified) [SluU11]” were 52.22%, 19.12%, 1.27%, 1.44% and 21%.
Consider “CGAGAGCAGCGCAAGTGAGGAG (guide RNA; chemistry not fully specified) [SluD49]”, for which, in series [1], the “% of CUG foci free nuclei (DNA-PKi)” value is 37.77% and the “% of CUG foci free nuclei (Vehicle)” value was determined as 12.39%. Besides, in series [2], the “% of CAG foci positive nuclei (DNA-PKi)” value was 2.3% and the “% of CAG foci positive nuclei (Vehicle)” value is 2.83%. In series [3], the Indel efficiency is listed as 41%.
Regarding “ACCTCGTCCTCCGACTCGCTGA (guide RNA; chemistry not fully specified) [SluD65]”, in series [1], the “% of CUG foci free nuclei (DNA-PKi)” value worked out at 32.37% and the “% of CUG foci free nuclei (Vehicle)” value is 18.5%. In series [2], the “% of CAG foci positive nuclei (DNA-PKi)” value is on record as 0.92% and the “% of CAG foci positive nuclei (Vehicle)” value was determined as 1.33%. This substance also yielded an Indel efficiency in series [3] of 36%.
For the substance “GCCCCCTAGCggccggggaggg (guide RNA; as printed in the source, key not given here) [SluU42]”, in series [1], the “% of CUG foci free nuclei (DNA-PKi)” value is 42.7% and the “% of CUG foci free nuclei (Vehicle)” value is on record as 7.05%. Also, in series [2], the “% of CAG foci positive nuclei (DNA-PKi)” value is on record as 1.62% and the “% of CAG foci positive nuclei (Vehicle)” value was found to be 0.86%. In addition, in series [3], the Indel efficiency is recorded as 15%.
Consider “GCCCAGCTCCAGTCCTGTGATC (guide RNA; chemistry not fully specified) [SluU28]”, for which, in series [1], the “% of CUG foci free nuclei (DNA-PKi)” value is given as 36.78% and the “% of CUG foci free nuclei (Vehicle)” value came to 10.14%. In series [2], the “% of CAG foci positive nuclei (DNA-PKi)” value is reported as 1.64% and the “% of CAG foci positive nuclei (Vehicle)” value is given as 1.15%. This substance yielded an Indel efficiency in series [3] of 17%.
Taken in the same sequence, the figures for “TGCTTTTGCCAAACCCGCTTTT (guide RNA; chemistry not fully specified) [SluD39]” were 31.63%, 9.15%, 1.68%, 1.95% and 39%.
Consider “CCCCTCCTCACTTGCGCTGCTC (guide RNA; chemistry not fully specified) [SluD47]”, for which, in series [1], the “% of CUG foci free nuclei (DNA-PKi)” value turned out to be 28.63% and the “% of CUG foci free nuclei (Vehicle)” value was 8.95%. For the same substance, in series [2], the “% of CAG foci positive nuclei (DNA-PKi)” value is given as 1.11% and the “% of CAG foci positive nuclei (Vehicle)” value amounted to 1%. Besides, the Indel efficiency in series [3] came out at 18%.
Taken in the same sequence, the figures for “CAGTTCACAACCGCTCCGAGCG (guide RNA; chemistry not fully specified) [SluU23]” were 29.8%, 11.23%, 1.53%, 1% and 5%.
Taken in the same sequence, the figures for “TGGGCGGAGACCCACGCTCGGA (guide RNA; chemistry not fully specified) [SluU25]” were 47.96%, 23.15%, 1.29%, 0.92% and 38%.
Taken in the same sequence, the figures for “AGACAATAAATACCGAGGAATG (guide RNA; chemistry not fully specified) [SluD82]” were 29.51%, 14.98%, 2.02%, 1.39% and 22%.
“TCGCGCCAGACGCTCCCCAGAG (guide RNA; chemistry not fully specified) [SluD35]”: in series [1], the “% of CUG foci free nuclei (DNA-PKi)” value was determined as 12.47% and the “% of CUG foci free nuclei (Vehicle)” value was 6.61%. Also, in series [2], the “% of CAG foci positive nuclei (DNA-PKi)” value amounted to 1.13% and the “% of CAG foci positive nuclei (Vehicle)” value worked out at 1.04%. This substance gave an Indel efficiency in series [3] of 0%.
